From patent US9023789B2, “Amylin analogs and pharmaceutical compositions thereof” (Novo Nordisk A/S, priority 2012, dated 2015)
Numbered stars: 1 amine (or outer) side, 2 acyl side, 3 side chain; on linkers, the order of the positions; unused ones are H or OH. Bridge positions count the residues as written; N and C are the ends. Side chains are listed from the residue outwards. Peptide text beside a SMILES is read from it. * marks the point of attachment. C20 diacid = O=C(O)CCCCCCCCCCCCCCCCCCC(=O)*; γGlu = O=C(O)[C@H](CCC(=O)[*:2])N[*:1]; AEEA = NCCOCCOCC(=O)O

Tests used:
rat calcitonin receptor = target: T1, rat calcitonin receptor (Rattus norvegicus, UniProt P32214); experiment: ASSAY (VIII) binding to the rat calcitonin receptor; conditions: Table 7, read-out: rCTR bind IC50
T1 construct: expressed in transfected cells; host or cells: BHK tk'ts 13 (transient, FuGENE 6), membranes
T1 sequence (P32214 25-479 isoform P32214-2 limits assumed): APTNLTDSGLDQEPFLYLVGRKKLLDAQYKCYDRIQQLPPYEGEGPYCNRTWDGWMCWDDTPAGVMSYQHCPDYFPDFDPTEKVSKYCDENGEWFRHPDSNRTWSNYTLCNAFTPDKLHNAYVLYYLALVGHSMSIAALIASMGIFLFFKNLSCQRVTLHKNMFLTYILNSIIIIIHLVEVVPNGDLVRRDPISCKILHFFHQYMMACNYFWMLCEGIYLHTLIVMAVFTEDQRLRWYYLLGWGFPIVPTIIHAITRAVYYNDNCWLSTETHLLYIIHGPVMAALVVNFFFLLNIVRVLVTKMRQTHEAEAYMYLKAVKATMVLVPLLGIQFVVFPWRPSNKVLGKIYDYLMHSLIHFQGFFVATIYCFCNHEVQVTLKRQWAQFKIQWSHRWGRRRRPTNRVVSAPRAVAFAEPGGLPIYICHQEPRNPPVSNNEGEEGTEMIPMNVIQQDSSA
In short: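 BHK tk′ts 13 cells, transient rat calcitonin receptor transfection; DMEM + 10% FBS; harvest ~48 h post-transfection; membrane prep.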

[1] = target: T2, human amylin receptor (membranes from Amylin 3(a)/CRE-luc cells) (Homo sapiens, UniProt O60896+P30988); experiment: ASSAY (V) binding to the human amylin receptor (SPA, 125I-rat amylin);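 further: competition binding of cell membranes (35 ng/µL) mixed with SPA beads in 384-well plates at 40 µL total volume, read by scintillation counting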
T2 construct: expressed in transfected cells
T2 sequence (P30988 25-474): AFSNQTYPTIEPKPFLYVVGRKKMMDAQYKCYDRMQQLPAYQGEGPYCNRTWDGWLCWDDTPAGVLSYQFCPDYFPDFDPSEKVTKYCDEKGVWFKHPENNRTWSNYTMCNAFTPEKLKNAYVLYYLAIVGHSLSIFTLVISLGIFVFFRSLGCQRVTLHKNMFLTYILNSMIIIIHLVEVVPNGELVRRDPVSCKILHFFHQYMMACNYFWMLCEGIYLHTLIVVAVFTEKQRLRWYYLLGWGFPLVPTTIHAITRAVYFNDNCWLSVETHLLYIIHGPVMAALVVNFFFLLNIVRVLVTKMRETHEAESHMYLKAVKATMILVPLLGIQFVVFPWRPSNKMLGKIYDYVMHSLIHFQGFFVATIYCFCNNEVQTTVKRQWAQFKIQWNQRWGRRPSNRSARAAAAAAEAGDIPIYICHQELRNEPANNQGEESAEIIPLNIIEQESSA
T2 sequence (O60896 24-148 partner): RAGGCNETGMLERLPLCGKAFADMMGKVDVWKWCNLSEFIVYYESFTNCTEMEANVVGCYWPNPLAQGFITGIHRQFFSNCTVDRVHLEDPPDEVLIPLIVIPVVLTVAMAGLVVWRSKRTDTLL

[2] = target: T3, human amylin 3(a) receptor (human calcitonin receptor + RAMP-3) in BHK570 cells (Homo sapiens, UniProt O60896+P30988); experiment: ASSAY (II)a functional assay, human amylin receptor (CRE luciferase); format: cell-based
T3 construct: expressed in transfected cells
In short: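 Receptor activation is measured as cAMP-driven CRE-luciferase expression in BHK cells expressing the calcitonin receptor, with RAMP-3 co-expressed to form the amylin 3(a) receptor. Cells are exposed to compound for 3 hours at 37° C, and luciferase is then quantified by luminescence.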

Sprague Dawley (SD) rats = experiment: ASSAY (I) efficacy testing on appetite (food intake) using an ad libitum fed rat model; format: in vivo; conditions: rat, 30 nmol/kg
In short: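 Individual food consumption was logged each hour up to 7 h and again at 24 h, occasionally 48 h, with Grubbs-test outliers removed. Each 200–250 g Sprague Dawley rat, free-feeding in its home cage under reversed lighting, received a single ip, po or sc dose of 0.01–3 mg/kg at lights-off, alongside a vehicle group.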

[3] = Table 5, selectivity, hCTR bind IC50 / hAmylin-R bind IC50
[4] = Table 5a, selectivity, hCTR bind IC50 / hAmylin-R bind IC50
[5] = Table 5b, selectivity, hCTR bind IC50 / hAmylin-R bind IC50
[6] = Table 5c, selectivity, hCTR bind IC50 / hAmylin-R bind IC50
[7] = Table 7, human binding selectivity, included for comparison
[8] = Table 7a (preferred compounds), human binding selectivity, included for comparison
[9] = ratio of human calcitonin receptor binding IC50 to human amylin receptor binding IC50
[10] = hCTR funct. EC50 divided by hAmylin-R funct. EC50
[11] = hCTR funct. EC50 over hAmylin-R funct. EC50
[12] = human functional selectivity: hCTR funct. EC50 / hAmylin-R funct. EC50

SMILES | IC50 (rat calcitonin receptor) [nM] | Ratio hCT/hAmylin binding [1, 3] | Ratio hCT/hAmylin binding [1, 4] | Ratio hCT/hAmylin binding [1, 5] | Ratio hCT/hAmylin binding [1, 6] | Ratio hCT/hAmylin binding [1, 7] | Ratio hCT/hAmylin binding [1, 8] | Ratio hCT/hAmylin binding [1, 9] | Ratio hCT/hAmylin funct. [2, 10] | Ratio hCT/hAmylin funct. [2, 11] | Ratio hCT/hAmylin funct. [2, 12] | Food intake reduction 0-24 h 30 nmol/kg (%) (Sprague Dawley (SD) rats) | Food intake reduction 24-48 h 30 nmol/kg (%) (Sprague Dawley (SD) rats)
CC[C@H](C)[C@H](NC(=O)[C@H](C)NC(=O)CNC(=O)[C@H](Cc1ccccc1)NC(=O)[C@H](CC(N)=O)NC(=O)[C@@H]1CCCN1C(=O)[C@H](CO)NC(=O)[C@H](CO)NC(=O)[C@H](Cc1c[nH]cn1)NC(=O)[C@H](CCCNC(=N)N)NC(=O)[C@H](CC(C)C)NC(=O)[C@H](Cc1ccccc1)NC(=O)[C@H](Cc1c[nH]cn1)NC(=O)[C@H](C)NC(=O)[C@H](CC(C)C)NC(=O)[C@H](CCCNC(=N)N)NC(=O)[C@H](CCC(N)=O)NC(=O)[C@@H](NC(=O)[C@H](C)NC(=O)[C@@H]1CSSC[C@H](NC(=O)[C@@H](N)CCCCNC(=O)COCCOCCNC(=O)CC[C@H](NC(=O)CCCCCCCCCCCCCCCCCCC(=O)O)C(=O)O)C(=O)N[C@@H](CC(N)=O)C(=O)N[C@@H]([C@@H](C)O)C(=O)N[C@@H](C)C(=O)N[C@@H]([C@@H](C)O)C(=O)N1)[C@@H](C)O)C(=O)N1CCC[C@H]1C(=O)N[C@@H](CO)C(=O)N[C@@H](CO)C(=O)N[C@H](C(=O)N[C@@H](CC(N)=O)C(=O)N[C@H](C(=O)NCC(=O)N1CCC[C@H]1C(=O)N[C@@H](CC(N)=O)C(=O)N[C@H](C(=O)N[C@@H](Cc1ccc(O)cc1)C(N)=O)[C@@H](C)O)C(C)C)[C@@H](C)O [Example 68] (H-K([AEEA-γGlu-C20 diacid])CNTATCATQRLAHFLRHSSPNFGAIPSSTNVGPNTY-NH2; disulfide 2-7) | 28.5 | 64.4 | 64.4 | 64.4 | 64.4 | 64.4 | 64.4 | 64.4 | 17.4 | 17.4 | 17.4 | 33 | 0
CC[C@H](C)[C@H](NC(=O)[C@H](C)NC(=O)CNC(=O)[C@H](Cc1ccccc1)NC(=O)[C@H](CC(N)=O)NC(=O)[C@@H]1CCCN1C(=O)[C@H](CO)NC(=O)[C@H](CO)NC(=O)[C@H](Cc1c[nH]cn1)NC(=O)[C@H](CCCNC(=N)N)NC(=O)[C@H](CC(C)C)NC(=O)[C@H](Cc1ccccc1)NC(=O)[C@H](CC(N)=O)NC(=O)[C@H](C)NC(=O)[C@H](CC(C)C)NC(=O)[C@H](CCCNC(=N)N)NC(=O)[C@H](CCC(N)=O)NC(=O)[C@@H](NC(=O)[C@H](C)NC(=O)[C@@H]1CSSC[C@H](NC(=O)[C@@H](N)CCCCNC(=O)CC[C@H](NC(=O)CCCCCCCCCCCCCCCCCCC(=O)O)C(=O)O)C(=O)N[C@@H](CC(N)=O)C(=O)N[C@@H]([C@@H](C)O)C(=O)N[C@@H](C)C(=O)N[C@@H]([C@@H](C)O)C(=O)N1)[C@@H](C)O)C(=O)N1CCC[C@H]1C(=O)N[C@@H](CO)C(=O)N[C@@H](CO)C(=O)N[C@H](C(=O)N[C@@H](CC(N)=O)C(=O)N[C@H](C(=O)NCC(=O)N[C@@H](Cc1c[nH]cn1)C(=O)N[C@@H](CC(N)=O)C(=O)N[C@H](C(=O)N[C@@H](Cc1ccc(O)cc1)C(N)=O)[C@@H](C)O)C(C)C)[C@@H](C)O [Example 77] | 205 | 118.4 | 118.4 | 118.4 | 118.4 | 118.4 | 118.4 | 118.4 | 37.3 | 37.3 | 37.3 | 40 | 16
